Columns and labels:
human TLR8 = molecular target: T1, human TLR8 (Homo sapiens, UniProt Q9NR97); assay: HEK-Blue hTLR8 SEAP reporter gene inhibition assay; type: cell-based; conditions: hTLR8 HEK-Blue cells, TLR8 ligand 10 µM, 20 hours, SEAP by Quanti-blue; class symbols; read-out: HEK-Blue hTLR8 IC50
T1 construct: expressed in transfected cells
T1 sequence (Q9NR97 27-1041): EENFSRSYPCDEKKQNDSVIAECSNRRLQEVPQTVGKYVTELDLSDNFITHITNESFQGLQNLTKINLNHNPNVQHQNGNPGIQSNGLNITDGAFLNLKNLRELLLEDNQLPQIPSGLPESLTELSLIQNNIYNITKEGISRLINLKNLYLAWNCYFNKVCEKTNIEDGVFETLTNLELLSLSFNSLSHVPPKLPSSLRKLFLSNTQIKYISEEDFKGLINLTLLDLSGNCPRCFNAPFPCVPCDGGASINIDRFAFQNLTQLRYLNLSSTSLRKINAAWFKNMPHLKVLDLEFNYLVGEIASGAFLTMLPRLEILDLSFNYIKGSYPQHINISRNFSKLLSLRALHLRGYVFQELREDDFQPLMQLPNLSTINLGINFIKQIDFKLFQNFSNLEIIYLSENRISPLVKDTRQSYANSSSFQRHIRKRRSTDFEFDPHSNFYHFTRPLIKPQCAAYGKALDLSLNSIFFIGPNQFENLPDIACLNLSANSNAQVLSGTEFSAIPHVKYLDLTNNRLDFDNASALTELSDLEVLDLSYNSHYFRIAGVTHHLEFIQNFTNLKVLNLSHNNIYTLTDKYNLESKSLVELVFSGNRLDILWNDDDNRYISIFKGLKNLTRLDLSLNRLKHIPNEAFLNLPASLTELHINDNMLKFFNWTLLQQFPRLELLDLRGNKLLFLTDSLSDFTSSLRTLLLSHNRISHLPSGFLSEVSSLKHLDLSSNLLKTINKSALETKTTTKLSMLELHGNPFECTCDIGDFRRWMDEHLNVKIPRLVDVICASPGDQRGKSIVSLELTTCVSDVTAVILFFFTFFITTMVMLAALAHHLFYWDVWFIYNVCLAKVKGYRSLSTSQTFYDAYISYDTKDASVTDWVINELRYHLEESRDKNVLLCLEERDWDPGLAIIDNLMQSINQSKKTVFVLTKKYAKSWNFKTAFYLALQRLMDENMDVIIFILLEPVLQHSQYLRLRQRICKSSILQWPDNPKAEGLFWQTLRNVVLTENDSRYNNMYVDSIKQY
Method: (§1) HEK-Blue cells with stable expression of human TLR7 or TLR8 were used in the evaluation of inhibitory activity of compounds in the present invention against TLR7 or TLR8, by using its ability to induce the SEAP reporting gene under the control of the fusion of IFN-β minimum promoters into five NF-κB and ap-1 binding sites, as follows: hTLR7 HEK-Blue cells (Invivogen, 80, 000 cells per well) or hTLR8 HEK-Blue cells (60, 000 cells per well) were added to a 96-well cell culture plate. A solution of the testing compounds were added to each well, with the final concentration of tested compounds in the medium ranged from 0.001 to 36 µM and the culture was incubated for 15 minutes. M5049 was used as positive controls in the testing.
(§2) Then a TLR7 ligand (Gardiquimod, purchased from MedChemExpress, with final concentration of ligand in cell culture medium kept at 10 µM) or a TLR8 ligand (purchased from MedChemExpress with final concentration in cell culture media at 10 µM) and the culture was incubated for 20 hours. According to the manufacturer's instructions, a HEK-Blue reagent Quanti-blue (Invivogen) was used to detect the SEAP levels in cell cultures. The half […] concentration or IC50 was calculated by using GraphPad Prism. […] Table 1: Activities of examples in this invention to hTLR7/8 in HEK-Blue Cells

human TLR7 = molecular target: T2, human TLR7 (Homo sapiens, UniProt Q9NYK1); assay: HEK-Blue hTLR7 SEAP reporter gene inhibition assay; type: cell-based; conditions: hTLR7 HEK-Blue cells, TLR7 ligand Gardiquimod 10 µM, 20 hours, SEAP by Quanti-blue; class symbols; read-out: HEK-Blue hTLR7 IC50
T2 sequence (Q9NYK1 27-1049): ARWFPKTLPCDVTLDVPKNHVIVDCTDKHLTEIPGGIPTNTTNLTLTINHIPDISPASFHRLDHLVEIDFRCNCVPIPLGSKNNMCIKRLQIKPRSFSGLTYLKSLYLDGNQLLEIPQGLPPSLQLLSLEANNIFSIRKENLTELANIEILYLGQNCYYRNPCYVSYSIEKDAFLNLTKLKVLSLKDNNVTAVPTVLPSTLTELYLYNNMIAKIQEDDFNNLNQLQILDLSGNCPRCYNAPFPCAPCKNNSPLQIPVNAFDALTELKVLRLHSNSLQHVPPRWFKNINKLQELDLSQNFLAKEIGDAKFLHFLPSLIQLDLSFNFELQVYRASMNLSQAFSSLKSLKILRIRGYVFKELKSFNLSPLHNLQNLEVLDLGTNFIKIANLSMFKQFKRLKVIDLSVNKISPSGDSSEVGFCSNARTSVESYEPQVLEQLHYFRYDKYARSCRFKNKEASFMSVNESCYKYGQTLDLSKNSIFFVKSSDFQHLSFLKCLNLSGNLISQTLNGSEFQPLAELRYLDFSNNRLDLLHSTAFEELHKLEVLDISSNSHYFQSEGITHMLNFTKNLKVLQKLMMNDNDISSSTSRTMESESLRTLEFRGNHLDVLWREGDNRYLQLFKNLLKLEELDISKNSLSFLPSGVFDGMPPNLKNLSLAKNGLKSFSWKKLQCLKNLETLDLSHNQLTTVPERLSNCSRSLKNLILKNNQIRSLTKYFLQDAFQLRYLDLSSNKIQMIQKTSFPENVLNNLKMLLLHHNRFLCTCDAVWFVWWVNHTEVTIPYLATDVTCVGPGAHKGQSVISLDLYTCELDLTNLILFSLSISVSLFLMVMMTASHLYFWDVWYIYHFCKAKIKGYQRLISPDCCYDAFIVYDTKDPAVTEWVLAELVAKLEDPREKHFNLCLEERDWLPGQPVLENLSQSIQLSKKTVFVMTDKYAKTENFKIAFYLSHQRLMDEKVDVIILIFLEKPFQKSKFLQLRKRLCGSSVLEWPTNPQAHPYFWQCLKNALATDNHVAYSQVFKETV
Method: as §1, §2

Row | IC50 (human TLR8) [nM] | IC50 (human TLR7) [nM] | Compound
1 | < 100 | < 50 | CC1Cc2nn3c(c2CN1)CN(c1ccc(C#N)n2ncc(F)c12)C[C@H]3C (single isomer, unassigned) [Example I-11a]
2 | < 100 | < 50 | CC1Cc2nn3c(c2CN1)CN(c1ccc(C#N)n2ncc(F)c12)C[C@H]3C (single isomer, unassigned) [Example I-11b]
3 | < 100 | < 50 | C[C@@H]1CN(c2ccc(C#N)n3ncc(F)c23)Cc2c3c(nn21)CC(N)CC3 (single isomer, unassigned) [Example I-20a]
4 | < 100 | < 50 | C[C@@H]1CN(c2ccc(C#N)n3ncc(F)c23)Cc2c3c(nn21)CC(N)CC3 (single isomer, unassigned) [Example I-20b]
5 | < 100 | < 50 | CC1Cc2c(nn3c2CN(c2ccc(C#N)n4ncc(F)c24)C[C@H]3C)C(C)N1 (single isomer, unassigned) [Example I-59b]
6 | < 100 | < 50 | C[C@@H]1CN(c2ccc(C#N)n3ncc(F)c23)Cc2c3c(nn21)CC(C)(N)CC3 (single isomer, unassigned) [Example I-71a]
7 | < 100 | > 50 | C[C@@H]1CN(c2ccc(C#N)n3ncc(F)c23)Cc2c3c(nn21)CC(C)(N)CC3 (single isomer, unassigned) [Example I-71b]
8 | > 100 | > 50 | C[C@@H]1CN(c2ccc(C#N)n3ncc(F)c23)Cc2c3c(nn21)CCC(C)(N)C3 (single isomer, unassigned) [Example I-80a]
9 | > 100 | > 50 | C[C@@H]1CN(c2ccc(C#N)n3ncc(F)c23)Cc2c3c(nn21)CCC(C)(N)C3 (single isomer, unassigned) [Example I-80b]
10 | < 100 | < 50 | CC1Cc2c(nn3c2CN(c2ccc(C#N)n4ncc(F)c24)C[C@H]3C)C(C)N1 (single isomer, unassigned) [Example I-88a]
11 | > 100 | < 50 | CC1Cc2c(nn3c2CN(c2ccc(C#N)n4ncc(F)c24)C[C@H]3C)C(C)N1 (single isomer, unassigned) [Example I-88b]
12 | < 100 | < 50 | C[C@@H]1CN(c2ccc(C#N)n3ncc(F)c23)Cc2c3c(nn21)CCNC3 [Example I-2, (R)-3-fluoro-4-(7-methyl-1,3,4,7,8,10-hexahydropyrido[4',3':3,4]pyrazolo[1,5-a]pyrazin-9(2H)-yl)pyrazolo[1,5-a]pyridine-7-carbonitrile]
13 | < 100 | < 50 | C[C@@H]1CN(c2ccc(C#N)n3ncc(F)c23)Cc2c3c(nn21)CNCC3 [Example I-5, (R)-3-fluoro-4-(4-methyl-3,4,7,8,9,10-hexahydropyrido[3',4':3,4]pyrazolo[1,5-a]pyrazin-2(1H)-yl)pyrazolo[1,5-a]pyridine-7-carbonitrile]
14 | < 100 | < 50 | CC1Cc2nn3c(c2CN1)CN(c1ccc(C#N)n2ncc(F)c12)C[C@H]3C (stereo partly drawn) [Example I-11, 4-((7R)-3,7-dimethyl-1,3,4,7,8,10-hexahydropyrido[4',3':3,4]pyrazolo[1,5-a]pyrazin-9(2H)-yl)-3-fluoropyrazolo[1,5-a]pyridine-7-carbonitrile]
15 | < 100 | < 50 | CC1CNCc2c1nn1c2CN(c2ccc(C#N)n3ncc(F)c23)C[C@H]1C (stereo partly drawn) [Example I-12, 4-((7R)-4,7-dimethyl-1,3,4,7,8,10-hexahydropyrido[4',3':3,4]pyrazolo[1,5-a]pyrazin-9(2H)-yl)-3-fluoropyrazolo[1,5-a]pyridine-7-carbonitrile]
16 | < 100 | < 50 | C[C@@H]1CN(c2ccc(C#N)n3ncc(F)c23)Cc2c3c(nn21)[C@@H](C)NCC3 [Example I-21, 4-((4R,7R)-4,7-dimethyl-3,4,7,8,9,10-hexahydropyrido[3',4':3,4]pyrazolo[1,5-a]pyrazin-2(1H)-yl)-3-fluoropyrazolo[1,5-a]pyridine-7-carbonitrile]
17 | < 100 | > 50 | C[C@@H]1CN(c2ccc(C#N)n3ncc(F)c23)Cc2c3c(nn21)CC(N(C)C)CC3 (stereo partly drawn) [Example I-27, 4-((4R)-8-(dimethylamino)-4-methyl-3,4,7,8,9,10-hexahydropyrazino[1,2-b]indazol-2(1H)-yl)-3-fluoropyrazolo[1,5-a]pyridine-7-carbonitrile]

Row | Compound | IC50 (human TLR8) [nM] | IC50 (human TLR7) [nM]
18 | 3-Fluoro-4-((4R,9S)-8-(2-((R)-3-fluoropyrrolidin-1-yl)-2-oxoethyl)-4,9-dimethyl-3,4,7,8,9,10-hexahydropyrido[3',4':3,4]pyrazolo[1,5-a]pyrazin-2(1H)-yl)pyrazolo[1,5-a]pyridine-7-carbonitrile [Example I-149] | > 100 | < 50
19 | 3-Fluoro-4-((4R,9S)-8-(2-((S)-3-fluoropyrrolidin-1-yl)-2-oxoethyl)-4,9-dimethyl-3,4,7,8,9,10-hexahydropyrido[3',4':3,4]pyrazolo[1,5-a]pyrazin-2(1H)-yl)pyrazolo[1,5-a]pyridine-7-carbonitrile [Example I-153] | > 100 | < 50
20 | 4-((4R,9S)-4,9-dimethyl-8-(2-(4-methylpiperazin-1-yl)-2-oxoethyl)-3,4,7,8,9,10-hexahydropyrido[3',4':3,4]pyrazolo[1,5-a]pyrazin-2(1H)-yl)-3-fluoropyrazolo[1,5-a]pyridine-7-carbonitrile [Example I-128] | < 100 | < 50
21 | 4-((4R,9S)-8-(D-prolyl)-4,9-dimethyl-3,4,7,8,9,10-hexahydropyrido [3',4':3,4] pyrazolo [1,5-a]pyrazin-2(1H)-yl)-3-fluoropyrazolo[1,5-a]pyridine-7-carbonitrile [Example I-120] | < 100 | > 50
22 | 4-((4R,9S)-8-(cyanomethyl)-4,9-dimethyl-3,4,7,8,9,10-hexahydropyrido[3',4':3,4] pyrazolo[1,5-a]pyrazin-2(1H)-yl)-3-fluoropyrazolo[1,5-a]pyridine-7-carbonitrile [Example I-124] | < 100 | < 50

— patent publication EP4644396A1 (Visionpharma (Nantong) Co., Ltd, priority 2022, dated 2024)
